The source of these data is US20020055528A1, “Artemisinin analogs having antimalarial, antiproliferative, and antitumor activities and chemoselective methods of making the same” (priority 1999, published 2002).

Like-named read-outs stand apart in the source and are kept apart here.

Data set [1] concerns chloroquine-sensitive P. falciparum (NF54). The data set can be described thus: Antimalarial screening, [3H]hypoxanthine incorporation. The format is cell-based, Plasmodium falciparum. The protocol: Activity was determined by measuring the incorporation of [^3H]hypoxanthine, by the methods of Desjardins and Milhouse, with the following modifications, see […].; Haynes, […]. Antimicrob. Agents Chemother., 16: 710 (1979); Milhous, W. K.; Weatherly, […].; Antimicrob. Agents Chemother., 27: 525 (1985). […] Calbiochem #391338), 27 mM NaHCO3 (Gibco BRL # 11810-025), and 10% heat-inactivated human type O+serum (Interstate Blood Bank, Inc.), under 3% O2, 4% CO2, and 93% N2-Parasitemia was maintained at 0.05-3% and doubling time at approximately 15 hours by twice weekly change of medium and replenishment with fresh erythrocytes. […] Sigma-Aldrich #27,043-1). DMSO solutions were diluted 500-fold in medium, serially diluted in 0.2% DMSO in medium (to maintain constant solvent concentration), then 100 μL aliquots were pipetted into microtiter plate wells (Costar3595). […] Cells were harvested (Brandel MB-48R) onto GF-C glass filters (Brandel). The filters were washed five times with 3 mL water per sample spot, dried under a heat lamp, and counted (Beckman Model LS-6500) in scintillation cocktail (ICN Cytoscint). Decays per minute (dpm) values were downloaded and analyzed (Power Macintosh 7200/90; Microsoft Excel 5.0), to yield the mean and standard deviation at each drug concentration.

The test system of data set [2] is murine keratinocyte cell line PE. The data set can be described thus: Growth inhibition of PE cells, MTT assay. To be noted: 96 hours. The format is cell-based. The protocol:
To determine the inhibitory effect of the compositions of the present invention on cell proliferation, screening assays were performed on a murine keratinocyte cell line PE. Cell line PE was chosen for its particular sensitivity to the induction of omithine decarboxylase (ODC) activity by the extensively characterized tumor promoter TPA. Cell line PE was derived from a papilloma-induced in female SENCAR mice by a standard skin initiation/promotion protocol, see Yuspa, S. H., et al., Carcinogenesis, 7:949-958 (1986). PE cell culture medium consisted of Eagle's minimal essential medium without calcium chloride (Whittaker Bioproducts, Walkersville, Mass.) supplemented with 8% chelexed fetal calf serum and 1% antibiotic-antimycotic (Gibco BRL) and the addition of CaCI2 to 0.05 mM Ca^++
MTT [3-(4,5-dimethylthiazol-2-yl)-2,5-diphenyltetraxolium bromide] was purchased from Sigma Chemical Co. (St. Louis, Mo.), and TPA was supplied by L.C. Services (Woburn, Mass.). L-[^14C]omithine ([…]) was from Amersham/Searle Corp. (Arlington Heights, Ill.). Chemical solvents used in all assays of biological activity were of the highest grade commercially available.
Growth curves, shown in FIG. 5, for PE cells treated with calcitriol and the C-10 carbon-substituted dimers VII-f, VII-g and VII-h generated by assay for the reduction of the tetrazolium-based compound MTT, see Charmichael, et al., Cancer Res., 47:936-942 (1987). A mitochondrial dehydrogenase reduces MTT to a blue formazan product with an absorbance maximum of 505 nm in DMSO; the number of viable cells can thus be determined spectrophotometrically. PE cells were seeded at a density of 5,000 cells/well in 50 IL of medium into 96-well microtiter plates. Twelve hours later, the medium was removed, and cells were treated with 100 μL of fresh medium into which the appropriate amount of calcitriol or analog dissolved in dimethyl sulfoxide (DMSO) had been added, with the concentration of DMSO held constant at 0.1 %. […] At 24-hour intervals following the initial treatment of the cells with compounds, 0.1 mg (50 μL of a 2 mg/mL solution) of MTT was added to each well. After 4 hours, the MTT was removed and DMSO added to dissolve the blue formazan dye. Using a microtiter plate reader, the A505 was then determined and cell number calculated from blank-subtracted absorbance values.

For data set [3] the following is noted: in vivo; cited from earlier work.
The next data set has as its system P. berghei. The conditions noted are these: P. berghei-infected mice; cited from earlier work.
For data set [4] the following is noted: rat liver microsomes; cited from earlier work.
Setting [5] is: chloroquine-sensitive P. falciparum (NF54), read-out: IC50.
Where [6] appears, read: Plasmodium falciparum, NF54, chloroquine-sensitive P. falciparum (NF54), read-out: IC50.

`C=CC1=C(C)C2CCC(C)C3CCC4(C)OOC23C(O1)O4` (stereo not drawn) [VII-a, 10-Vinylanhydroartemisinin]: the IC50 in data set [1] (setting [5]) amounted to 28 nM.

Turning to `CC1=C(C(=O)c2ccccc2)O[C@@H]2O[C@@]3(C)CC[C@H]4[C@H](C)CC[C@@H]1[C@@]24OO3` [I-4, 10-Benzoylanhydroartemisinin], the IC50 in data set [1] (setting [6]) worked out at 4.6 nM.

In data set [1] (Plasmodium falciparum, NF54), `CC1=C(c2nccs2)O[C@@H]2O[C@@]3(C)CC[C@H]4[C@H](C)CC[C@@H]1[C@@]24OO3` [Ib, 10-(2′-Thiazolyl)anhydroartemisinin] gave an IC50 of 14 nM.

In the case of `CC1=C(c2nc3ccccc3s2)OC2OC3(C)CCC4C(C)CCC1C24OO3` (stereo not drawn) [Benzo-4, 10-(2′-Benzothiazolyl)anhydroartemisinin], the IC50 in data set [1] (setting [5]) came out at 7.8 nM.

Consider `C=C1/C(=C\C=C2/CCC[C@]3(C)[C@@H]([C@H](C)CCCC(C)(C)O)CC[C@@H]23)C[C@@H](O)C[C@@H]1O` [calcitriol, 1α, 25-dihydroxyvitamin D3, reference compound], for which the “viability of treated cells by trypan blue exclusion” value in data set [2] is given as “identical to control cells”.

As to `C[C@H]1[C@@H](O)O[C@@H]2O[C@@]3(C)CC[C@H]4[C@H](C)CC[C@@H]1[C@@]24OO3` [II-1, dihydroartemisinin], the half-life in plasma result in data set [3] is “less than two hours”.

In the case of 10-(Benzhydryl)anhydroartemisinin [I-5], the IC50 in data set [1] (setting [5]) came out at 4.5 nM.

As to `CC1=CO[C@@H]2O[C@]3(C)CC[C@H]4[C@H](C)CC[C@@H]1[C@@]24OO3` [III], the activity in words entry in the data set with P. berghei is “inactive”.

Consider `CCO[C@H]1O[C@@H]2O[C@@]3(C)CC[C@H]4[C@H](C)CC[C@@H]([C@H]1C)[C@@]24OO3` [arteether], for which the “conversion into dihydroartemisinin (II-1)” value in data set [4] is given as “rapidly converted”.

For the molecule `CC1=C(C=Cc2ccc([N+](=O)[O-])cc2)OC2OC3(C)CCC4C(C)CCC1C24OO3` (stereo not drawn) [Z-VII-d, 10-(p-Nitrostyryl)anhydroartemisinin], the IC50 in data set [1] (setting [5]) is 10 nM.

Take `CC1=C(C=Cc2ccccc2)OC2OC3(C)CCC4C(C)CCC1C24OO3` (stereo not drawn) [E-VII-c, 10-(Styryl)anhydroartemisinin]: the IC50 in data set [1] (setting [5]) turned out to be 16 nM.

Turning to `CC1=C(C=Cc2ccc([N+](=O)[O-])cc2)OC2OC3(C)CCC4C(C)CCC1C24OO3` (stereo not drawn) [E-VII-d, 10-(p-Nitrostyryl)anhydroartemisinin], the IC50 in data set [1] (setting [5]) turned out to be 11 nM.

`CC1=C(C=Cc2ccccc2)OC2OC3(C)CCC4C(C)CCC1C24OO3` (stereo not drawn) [Z-VII-C, 10-(Styryl)anhydroartemisinin]: the IC50 in data set [1] (setting [5]) worked out at 8.1 nM.

In turn, `CC1=C(C=O)O[C@@H]2O[C@@]3(C)CC[C@H]4[C@H](C)CC[C@@H]1[C@@]24OO3` [Ie, 10-Formylanhydroartemisinin] registered a melting point of 115 to 117 °C. For the same molecule, the IC50 in data set [1] (setting [6]) was 37 nM.
